From article doi:10.1101/2025.06.05.658145v1 (biorxiv, 2025)

Tests used:
AcTyrA1 [1] = test: NADPH formation at […] nm, Michaelis-Menten fit; type: biochemical, Ananas comosus; details: 1 mM NADP+, 50 mM HEPES pH 7.5, 50 mM KCl, 37 °C
JaTyrAnc [2] = test: NADPH formation at […] nm, Michaelis-Menten fit; type: biochemical, Joinvillea ascendens; details: 1 mM NADP+, 50 mM HEPES pH 7.5, 50 mM KCl, 37 °C
JaTyrA1 [3] = test: NADPH formation at […] nm, Michaelis-Menten fit; type: biochemical, Joinvillea ascendens; details: 1 mM NADP+, 50 mM HEPES pH 7.5, 50 mM KCl, 37 °C
SaTyrA1 [4] = test: NADPH formation at […] nm, Michaelis-Menten fit; type: biochemical, Streptochaeta angustifolia; details: 1 mM NADP+, 50 mM HEPES pH 7.5, 50 mM KCl, 37 °C
SaTyrAnc [5] = test: NADPH formation at […] nm, Michaelis-Menten fit; type: biochemical, Streptochaeta angustifolia; details: 1 mM NADP+, 50 mM HEPES pH 7.5, 50 mM KCl, 37 °C
AcTyrAnc [6] = test: NADPH formation at […] nm, Michaelis-Menten fit; type: biochemical, Ananas comosus; details: 1 mM NADP+, 50 mM HEPES pH 7.5, 50 mM KCl, 37 °C
SaTyrA1 [7] = details: competitive model; 500 µM arogenate, 1 mM NADP+, pH 7.5, 37 °C
JaTyrA1 [8] = details: competitive model; 500 µM arogenate, 1 mM NADP+, pH 7.5, 37 °C
AcTyrA1 [9] = details: competitive model; 500 µM arogenate, 1 mM NADP+, pH 7.5, 37 °C
JaTyrAnc [10] = details: competitive model; 500 µM arogenate, 1 mM NADP+, pH 7.5, 37 °C
AcTyrAnc [11] = details: competitive model; 500 µM arogenate, 1 mM NADP+, pH 7.5, 37 °C
OsTyrA1 [12] = target: T1, OsTyrA1 (Oryza sativa, UniProt Q5Z9H5); details: competitive model; 500 µM arogenate, 1 mM NADP+, pH 7.5, 37 °C
T1 sequence (Q5Z9H5 46-353): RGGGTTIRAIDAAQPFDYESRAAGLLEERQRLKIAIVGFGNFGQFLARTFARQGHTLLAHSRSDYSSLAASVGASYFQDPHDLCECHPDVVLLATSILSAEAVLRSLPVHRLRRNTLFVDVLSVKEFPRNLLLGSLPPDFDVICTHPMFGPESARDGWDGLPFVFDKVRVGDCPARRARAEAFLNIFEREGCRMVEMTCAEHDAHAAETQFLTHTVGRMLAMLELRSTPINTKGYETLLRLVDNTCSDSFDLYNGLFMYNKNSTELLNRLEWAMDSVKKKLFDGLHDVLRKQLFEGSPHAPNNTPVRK

ZmTyrAnc [13] = target: T2, ZmTyrAnc (Zea mays, UniProt C0PK73); details: competitive model; 500 µM arogenate, 1 mM NADP+, pH 7.5, 37 °C
T2 sequence (C0PK73 50-392): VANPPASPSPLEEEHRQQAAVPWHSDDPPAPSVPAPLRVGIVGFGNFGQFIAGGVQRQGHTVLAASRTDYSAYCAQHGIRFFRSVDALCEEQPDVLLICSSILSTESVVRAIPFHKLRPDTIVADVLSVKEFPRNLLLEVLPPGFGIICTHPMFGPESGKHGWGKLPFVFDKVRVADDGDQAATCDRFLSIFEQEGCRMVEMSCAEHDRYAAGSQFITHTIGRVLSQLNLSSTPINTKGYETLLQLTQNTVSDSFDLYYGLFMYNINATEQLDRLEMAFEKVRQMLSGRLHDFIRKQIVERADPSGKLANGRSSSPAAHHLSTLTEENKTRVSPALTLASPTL

SaTyrAnc [14] = details: competitive model; 500 µM arogenate, 1 mM NADP+, pH 7.5, 37 °C
OsTyrAnc [15] = target: T3, OsTyrAnc (Oryza sativa, UniProt Q5Z6Y1); details: competitive model; 500 µM arogenate, 1 mM NADP+, pH 7.5, 37 °C
T3 sequence (Q5Z6Y1 50-342): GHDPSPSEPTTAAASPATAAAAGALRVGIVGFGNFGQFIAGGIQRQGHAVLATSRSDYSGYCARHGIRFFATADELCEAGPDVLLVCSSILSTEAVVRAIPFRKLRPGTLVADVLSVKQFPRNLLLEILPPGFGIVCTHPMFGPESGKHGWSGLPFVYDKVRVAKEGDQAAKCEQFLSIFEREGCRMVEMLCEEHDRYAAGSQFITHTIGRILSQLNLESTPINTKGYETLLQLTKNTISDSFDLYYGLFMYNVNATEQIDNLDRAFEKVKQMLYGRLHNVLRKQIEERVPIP

OsTyrAnc [16] = target: T3, OsTyrAnc; details: read-out: IC50 (µM Tyr); 500 uM arogenate, 1 mM NADP+; inhibitor
ZmTyrAnc [17] = target: T2, ZmTyrAnc; details: read-out: IC50 (µM Tyr); 500 uM arogenate, 1 mM NADP+; inhibitor
OsTyrA1 [18] = target: T1, OsTyrA1; details: read-out: IC50 (µM Tyr); 500 uM arogenate, 1 mM NADP+; inhibitor

N[C@@H](CC1(C(=O)O)C=CC(O)C=C1)C(=O)O (stereo partly drawn) [arogenate]
Km (AcTyrA1 [1]): 750 ± 80 µM
Km (JaTyrAnc [2]): 1900 ± 240 µM
Km (JaTyrA1 [3]): 730 ± 60 µM
Km (SaTyrA1 [4]): 720 ± 90 µM
Km (SaTyrAnc [5]): 350 ± 20 µM
Km (AcTyrAnc [6]): 1050 ± 170 µM

N[C@@H](Cc1ccc(O)cc1)C(=O)O [tyrosine]
Ki (SaTyrA1 [7]): 34 ± 23 µM
Ki (JaTyrA1 [8]): 24 ± 4 µM
Ki (AcTyrA1 [9]): 12 ± 6 µM
Ki (JaTyrAnc [10]): 106 ± 19 µM
Ki (AcTyrAnc [11]): 76 ± 30 µM
Ki (OsTyrA1 [12]): 21 ± 2 µM
Ki (ZmTyrAnc [13]): 352 ± 13 µM
Ki (SaTyrAnc [14]): 35 ± 8 µM
Ki (OsTyrAnc [15]): 78 ± 19 µM
IC50 (OsTyrAnc [16]): 280 ± 70 µM
IC50 (ZmTyrAnc [17]): 850 ± 30 µM
IC50 (OsTyrA1 [18]): 53 ± 5 µM
